For 12 compounds, mortality and pest or weed control results are on record in patent US5225607A, “Insecticidal ethers” (Imperial Chemical Industries PLC, priority 1985, dated 1993).

Holding throughout (assay type): in vivo
One test deals with Tetranychus urticae. Kind of test: Insecticidal/acaricidal test, Tetranychus urticae (spider mites - adult), contact. Particulars: 72 h, French bean leaf, 3 days, read-out: grading of mortality, TU. As for the experimental part: The activity of the Product was determined using a variety of insect and acarine pests. The Product was used in the form of liquid preparations containing 500, 250 or 100 parts per million (ppm) by weight of the Product. The preparations were made by dissolving the Product in acetone and diluting the solutions with water containing 0.01% by weight of a wetting agent sold under the trade name "LISSAPOL" NX until the liquid preparations contained the required concentratio of the Product. "Lissapol" is a Registered Trade Mark.
The test procedure adopted with regard to each pest was basically the same and comprised supporting a number of the pests on a medium which was usually a host plant or a foodstuff on which the pests feed, and treating either or both the pests and the medium with the preparations. The mortality of the pests was then assessed at periods usually varying from one to three days after the treatment.
The results of the tests are given in Table IV for each of the Products, at the rate in parts per million given in the second column as a grading of mortality designated as A, B or C wherein A indicates 80-100% mortality or knockdown (70-100% in the case of Spodoptera exigua), B indicates 50-79% mortality or knockdown (50-69% in the case of Spodoptera exigua) and C indicates less than 50% mortality or knockdown.
In Table IV the pest organism used is designated by a letter code and the pest species, the support medium or food, and the type and duration of test is given in Table III.

Test [1] relates to Musca domestica. As to the kind of experiment: Insecticidal test, Musca domestica (houseflies - adults), contact. Particulars: 24 h, cotton wool/sugar, 1 day, read-out: grading of mortality, MD. In short, it runs like this: (§1)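 Acetone solution diluted in water + 0.01% wetting agent; 500/250/100 ppm. Treat pests and/or host plant/food medium. Read mortality/knockdown day 1–3. Grades: A 80–100% (S. exigua 70–100%), B 50–79% (50–69%), C <50%.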

In the next test the test system is Blattella germanica. As to the kind of experiment: Insecticidal test, Blattella germanica (cockroach nymphs), residual. Particulars: 72 h, plastic pot, 3 days, read-out: grading of mortality, BG. In short, it runs like this: as §1
Another test deals with Myzus persicae. As to the kind of experiment: Insecticidal test, Myzus persicae (aphids), contact. Particulars: 72 h, Chinese Cabbage leaf, 3 days, read-out: grading of mortality, MP. In short, it runs like this:
as §1

In the next test the test system is Nilaparvata lugens. Kind of test: Insecticidal test, Nilaparvata lugens (brown planthopper), contact. Particulars: 72 h, Cabbage leaf, 3 days, read-out: grading of mortality, NL. The method, boiled down: as §1
The subject of another test is Diabrotica balteata. Kind of test: Insecticidal test, Diabrotica balteata (rootworm larvae), residual. Particulars: 72 h, filter paper/maize seed, 3 days, read-out: grading of mortality, DB. The method, boiled down: as §1
The test system of the next test is Heliothis virescens. Kind of test: whole plant or invertebrate. Particulars: in Gossypium hirsutum, 72 h, read-out: grading of mortality, HV. The method, boiled down:
as §1

The subject of test [2] is Musca domestica. Kind of test: Knockdown test, Musca domestica (houseflies - adults). Particulars: cotton wool/sugar, 4 hours, read-out: grading of knockdown, MD/KD. In short, it runs like this: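 Adult houseflies were exposed to the compound as aqueous acetone preparations with 0.01% Lissapol NX wetting agent, at 500, 250 or 100 ppm. Knockdown was graded A (80–100%), B (50–79%) or C (<50%).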

Some results are limits rather than exact numbers.

With `Fc1ccc(COCC(Cl)(c2ccc(Cl)cc2)C(F)(F)F)cc1Oc1ccccc1` (stereo not drawn) [Compound 50, 1,1,1-Trifluoro-2-chloro-2-(4-chlorophenyl)-3-(3-phenoxy-4-fluorobenzyloxy)propane], the mortality – broadly, the percentage killed – at 500 ppm is less than 50% in the test with Tetranychus urticae; 80 to 100% in the test on Musca domestica [1]; less than 50% in the test on Blattella germanica; 80 to 100% with Myzus persicae; 80 to 100% in the test on Nilaparvata lugens; 80 to 100% with Diabrotica balteata. In the test on Heliothis virescens, the mortality at 500 ppm fell in the range of 80 to 100%. Also, the pest or weed control at 500 ppm in the test with Musca domestica [2] fell in the range of 80 to 100%.

With `Fc1ccc(COCC(Cl)(c2ccc3c(c2)CCC3)C(F)(F)F)cc1Oc1ccccc1` (stereo not drawn) [Compound 52, 1,1,1,-Trifluoro-2-chloro-2-(5-indanyl)-3-(3-phenoxy-4-fluorobenzyloxy)propane], the mortality at 500 ppm in the test on Tetranychus urticae was less than 50%; with Musca domestica [1] it was 50 to 79%; with Blattella germanica, 80 to 100%; with Myzus persicae it was less than 50%; in the test with Nilaparvata lugens, less than 50%; in the test with Diabrotica balteata, less than 50%. For the same compound, the mortality at 500 ppm with Heliothis virescens was in the range of 50 to 79%. Moreover, the pest or weed control at 500 ppm in the test with Musca domestica [2] was 80 to 100%.

On to `CCCc1ccc(C(Cl)(COCc2ccc(F)c(Oc3ccccc3)c2)C(F)(F)F)cc1` (stereo not drawn) [Compound 53, 1,1,1-Trifluoro-2-chloro-2-(4-n-propylphenyl)-3-(3-phenoxy-4-fluorobenzyloxy)propane], for which the mortality at 500 ppm with Tetranychus urticae, with Musca domestica [1], in the test on Blattella germanica, in the test on Myzus persicae, in the test with Nilaparvata lugens and in the test on Diabrotica balteata was 80 to 100% throughout. Besides, the mortality at 500 ppm with Heliothis virescens fell in the range of 80 to 100%. Also, in the test on Musca domestica [2], the pest or weed control at 500 ppm lay within 80 to 100%.

For `FC(F)(F)Oc1ccc(C(Cl)(COCc2cccc(Oc3ccccc3)c2)C(F)(F)F)cc1` (stereo not drawn) [Compound 59, 1,1,1-Trifluoro-2-chloro-2-(4-trifluoromethoxyphenyl)-3-(3-phenoxybenzyloxy)propane], the mortality at 100 ppm with Tetranychus urticae (100 ppm) was 80 to 100%; in the test on Musca domestica [1] (100 ppm) it was 80 to 100%; in the test with Blattella germanica (100 ppm), 80 to 100%; in the test with Myzus persicae (100 ppm), less than 50%; with Nilaparvata lugens (100 ppm), 80 to 100%; in the test with Diabrotica balteata (100 ppm) it was 80 to 100%. The mortality at 100 ppm in the test on Heliothis virescens was in the range of 80 to 100%. Also, the pest or weed control at 100 ppm in the test with Musca domestica [2] (100 ppm) was in the range of 80 to 100%.

On to `CCOc1ccc(C(F)(COCc2cccc(Oc3ccc(Cl)cc3)c2)C(F)(F)F)cc1` (stereo not drawn) [Compound 79, 1,1,1,2-Tetrafluoro-2-(4-ethoxyphenyl)-3-(3-(4-chlorophenoxy)benzyloxy)propane], for which the mortality at 250 ppm in the test with Tetranychus urticae is less than 50%; in the test with Musca domestica [1], 80 to 100%; with Blattella germanica, 80 to 100%; in the test with Myzus persicae, less than 50%; with Nilaparvata lugens, 80 to 100%; in the test on Diabrotica balteata, less than 50%. Further, the mortality at 250 ppm with Heliothis virescens is 80 to 100%. In the test on Musca domestica [2], the pest or weed control at 250 ppm was 80 to 100%.

As to `CCOc1ccc(C(F)(COCc2cccc(-c3ccccc3)c2C)C(F)(F)F)cc1` (stereo not drawn) [Compound 80, 1,1,1,2-Tetrafluoro-2-(4-ethoxyphenyl)-3-(2-methyl-3-phenylbenzyloxy)propane], the mortality at 500 ppm is less than 50% in the test with Tetranychus urticae; 80 to 100% in the test with Musca domestica [1]; 80 to 100% in the test with Blattella germanica; 80 to 100% in the test with Myzus persicae; 80 to 100% in the test on Nilaparvata lugens; 80 to 100% in the test on Diabrotica balteata. In addition, in the test on Heliothis virescens, the mortality at 500 ppm is less than 50%. The pest or weed control at 500 ppm in the test with Musca domestica [2] was 80 to 100%.

For `FC(F)(F)Oc1ccc(C(F)(COCc2cccc(Oc3ccccc3)c2)C(F)(F)F)cc1` (stereo not drawn) [Compound 82, 1,1,1,2-Tetrafluoro-2-(4-trifluoromethoxyphenyl)-3-(3-phenoxybenzyloxy)propane], the mortality at 500 ppm with Tetranychus urticae was less than 50%; with Musca domestica [1] it was 80 to 100%; with Blattella germanica it was 80 to 100%; in the test on Myzus persicae, 80 to 100%; in the test on Nilaparvata lugens, less than 50%; in the test on Diabrotica balteata it was 80 to 100%. For the same compound, the mortality at 500 ppm in the test with Heliothis virescens lay within 80 to 100%. Moreover, the pest or weed control at 500 ppm with Musca domestica [2] lay within 80 to 100%.

In the case of `CCOc1ccc(C(O)(COCc2cccc(Oc3ccccc3)c2)C(F)(F)F)cc1` (stereo not drawn) [Compound 112, 1,1,1-trifluoro-2-(4-ethoxyphenyl)-3-(3-phenoxybenzyloxy)propan-2-ol], the mortality at 250 ppm in the test with Tetranychus urticae was less than 50%; with Musca domestica [1], less than 50%; in the test on Blattella germanica, less than 50%; with Myzus persicae, less than 50%; in the test with Nilaparvata lugens it was less than 50%; in the test on Diabrotica balteata, 80 to 100%. In addition, the mortality at 250 ppm with Heliothis virescens is less than 50%. The pest or weed control at 250 ppm in the test with Musca domestica [2] was 50 to 79%.

As to `CCOc1ccc(C(O)(COCc2ccc(F)c(Oc3ccc(Cl)cc3)c2)C(F)(F)F)cc1` (stereo not drawn) [Compound 117, 1,1,1-Trifluoro-2-(4-ethoxyphenyl)-3-(3-(4-chlorophenoxy)-4-fluorobenzyloxy)propan-2-ol], the mortality at 500 ppm was less than 50% with Tetranychus urticae; 50 to 79% with Musca domestica [1]; less than 50% in the test with Blattella germanica; less than 50% in the test on Myzus persicae; less than 50% with Nilaparvata lugens; less than 50% in the test on Diabrotica balteata. The mortality at 500 ppm in the test on Heliothis virescens is less than 50%. Besides, the pest or weed control at 500 ppm with Musca domestica [2] lay in the range of 80 to 100%.

Regarding `OC(COCc1ccc(F)c(Oc2ccccc2)c1)(c1ccc2c(c1)CCC2)C(F)(F)F` (stereo not drawn) [Compound 124, 1,1,1-Trifluoro-2-(5-indanyl)-3-(3-phenoxy-4-fluorobenzyloxy)propan-2-ol], the mortality at 500 ppm in the test with Tetranychus urticae is 80 to 100%; in the test on Musca domestica [1] it was less than 50%; in the test with Blattella germanica, less than 50%; with Myzus persicae, less than 50%; in the test on Nilaparvata lugens it was less than 50%; in the test on Diabrotica balteata it was less than 50%. Moreover, the mortality at 500 ppm with Heliothis virescens was less than 50%. The pest or weed control at 500 ppm in the test on Musca domestica [2] was less than 50%.

Regarding `CCOc1ccc(C(O)(COCc2cccc(-c3ccccc3)c2C)C(F)(F)F)cc1` (stereo not drawn) [Compound 142, 1,1,1-Trifluoro-2-(4-ethoxyphenyl)-3-(2-methyl-3-phenylbenzyloxy)propan-2-ol], the mortality at 500 ppm was 80 to 100% in the test on Tetranychus urticae; less than 50% in the test with Musca domestica [1]; less than 50% in the test with Blattella germanica; less than 50% in the test on Myzus persicae; less than 50% in the test with Nilaparvata lugens; less than 50% in the test with Diabrotica balteata. Also, the mortality at 500 ppm in the test with Heliothis virescens lay within 80 to 100%. In addition, the pest or weed control at 500 ppm in the test with Musca domestica [2] is less than 50%.

For `Fc1ccc(COC=C(c2ccc(Cl)cc2)C(F)(F)F)cc1Oc1ccccc1` [Compound 458, 1,1,1-trifluoro-2-(4-chlorophenyl)-3-(3-phenoxy-4-fluorobenzyloxy)prop-2-ene], the mortality at 500 ppm was less than 50% in the test with Tetranychus urticae; 80 to 100% in the test on Musca domestica [1]; 50 to 79% with Blattella germanica; less than 50% in the test on Myzus persicae; 80 to 100% in the test with Nilaparvata lugens; 80 to 100% in the test with Diabrotica balteata. In addition, the mortality at 500 ppm in the test on Heliothis virescens lay in the range of 80 to 100%. Also, the pest or weed control at 500 ppm with Musca domestica [2] is 80 to 100%.
